Reference: ChEMBL document CHEMBL5724914, “Linking interpersonal differences in gut microbiota composition and drug biotransformation activity” (2024)

Legend:
[1] = (§1) The drug is tested on Z-025 corresponding to rabbit gut metagenome with ENA study accession number: PRJEB37062 and ENA sample accession number: ERS12561824 for biotransformation under anaerobic condition. The drug concentrations were measured over 9 timepoints collected between 0 and 24 hours of incubation by liquid-chromatography-coupled mass spectrometry (LC–MS); details: 2 µM
[2] = as §1, with “WLS-027” for “Z-025”, “human” for “rabbit”, “ERS12561744” for “ERS12561824”; details: 2 µM
[3] = as §1, with “Z-030” for “Z-025”, “mouse” for “rabbit”, “ERS12561829” for “ERS12561824”; details: 2 µM
[4] = as §1, with “Z-021” for “Z-025”, “to” for “to rabbit gut”, “ERS12561820” for “ERS12561824”; details: 2 µM
[5] = as §1, with “WLS-310” for “Z-025”, “human” for “rabbit”, “ERS12561785” for “ERS12561824”; details: 2 µM
[6] = human gut metagenome, 24 h, 2 µM
[7] = as §1, with “Z-026” for “Z-025”, “to” for “to rabbit gut”, “ERS12561825” for “ERS12561824”; details: 2 µM
[8] = as §1, with “WLS-007” for “Z-025”, “human” for “rabbit”, “ERS12561742” for “ERS12561824”; details: 2 µM
[9] = as §1, with “Z-014” for “Z-025”, “rat” for “rabbit”, “ERS12561814” for “ERS12561824”; details: 2 µM
[10] = human gut metagenome, 24 h, 2 µM; remark: listed apart in the source
[11] = human gut metagenome, 24 h, 2 µM; remark: listed apart in the source
[12] = human gut metagenome, 24 h, 2 µM; remark: listed apart in the source
[13] = as §1, with “WLS-086” for “Z-025”, “human” for “rabbit”, “ERS12561752” for “ERS12561824”; details: 2 µM
[14] = as §1, with “Z-027” for “Z-025”, “to” for “to rabbit gut”, “ERS12561826” for “ERS12561824”; details: 2 µM
[15] = human gut metagenome, 24 h, 2 µM; remark: listed apart in the source
[16] = as §1, with “WLS-220” for “Z-025”, “human” for “rabbit”, “ERS12561769” for “ERS12561824”; details: 2 µM
[17] = human gut metagenome, 24 h, 2 µM; remark: listed apart in the source
[18] = as §1, with “WLS-006” for “Z-025”, “human” for “rabbit”, “ERS12561741” for “ERS12561824”; details: 2 µM
[19] = human gut metagenome, 24 h, 2 µM; remark: listed apart in the source
[20] = human gut metagenome, 24 h, 2 µM; remark: listed apart in the source
Further: call rule not given here.

SMILES | Bacterial Biotransformation [1] | Bacterial Biotransformation [2] | Bacterial Biotransformation [3] | Bacterial Biotransformation [4] | Bacterial Biotransformation [5] | Bacterial Biotransformation [6] | Bacterial Biotransformation [7] | Bacterial Biotransformation [8] | Bacterial Biotransformation [9] | Bacterial Biotransformation [10] | Bacterial Biotransformation [11] | Bacterial Biotransformation [12] | Bacterial Biotransformation [13] | Bacterial Biotransformation [14] | Bacterial Biotransformation [15] | Bacterial Biotransformation [16] | Bacterial Biotransformation [17] | Bacterial Biotransformation [18] | Bacterial Biotransformation [19] | Bacterial Biotransformation [20]
c1ccc2[nH]c(-c3cscn3)nc2c1 [THIABENDAZOLE] | Compound NOT metabolized | Compound NOT metabolized | Compound NOT metabolized | Compound NOT metabolized | Compound NOT metabolized | Compound NOT metabolized | Compound NOT metabolized | Compound NOT metabolized | Compound NOT metabolized | Compound NOT metabolized | Compound metabolized | Compound NOT metabolized | Compound metabolized | Compound NOT metabolized | Compound NOT metabolized | Compound NOT metabolized | Compound metabolized | Compound NOT metabolized | Compound metabolized | Compound NOT metabolized
CCN(CC)CCNC(=O)c1cc(S(C)(=O)=O)ccc1OC [TIAPRIDE] | Compound NOT metabolized | Compound NOT metabolized | Compound NOT metabolized | Compound NOT metabolized | Compound metabolized | Compound metabolized | Compound NOT metabolized | Compound NOT metabolized | Compound NOT metabolized | Compound NOT metabolized | Compound metabolized | Compound NOT metabolized | Compound NOT metabolized | Compound NOT metabolized | Compound metabolized | Compound metabolized | Compound metabolized | Compound NOT metabolized | Compound metabolized | Compound NOT metabolized
CC(C)(C)NC[C@H](O)COc1nsnc1N1CCOCC1.O=C(O)/C=C\C(=O)O [TIMOLOL MALEATE] | Compound NOT metabolized | Compound NOT metabolized | Compound NOT metabolized | Compound NOT metabolized | Compound NOT metabolized | Compound NOT metabolized | Compound NOT metabolized | Compound NOT metabolized | Compound NOT metabolized | Compound NOT metabolized | Compound NOT metabolized | Compound NOT metabolized | Compound NOT metabolized | Compound NOT metabolized | Compound NOT metabolized | Compound NOT metabolized | Compound NOT metabolized | Compound NOT metabolized | Compound NOT metabolized | Compound NOT metabolized
CC[C@@]1(O)C(=O)OCc2c1cc1n(c2=O)Cc2cc3c(CN(C)C)c(O)ccc3nc2-1 [TOPOTECAN] | Compound NOT metabolized | Compound NOT metabolized | Compound NOT metabolized | Compound NOT metabolized | Compound NOT metabolized | Compound NOT metabolized | Compound NOT metabolized | Compound NOT metabolized | Compound NOT metabolized | Compound NOT metabolized | Compound NOT metabolized | Compound NOT metabolized | Compound NOT metabolized | Compound NOT metabolized | Compound NOT metabolized | Compound NOT metabolized | Compound NOT metabolized | Compound NOT metabolized | Compound NOT metabolized | Compound NOT metabolized
COc1ccc(C(CN(C)C)C2(O)CCCCC2)cc1 (stereo not given) [VENLAFAXINE] | Compound NOT metabolized | Compound NOT metabolized | Compound NOT metabolized | Compound NOT metabolized | Compound metabolized | Compound NOT metabolized | Compound NOT metabolized | Compound NOT metabolized | Compound NOT metabolized | Compound NOT metabolized | Compound NOT metabolized | Compound NOT metabolized | Compound NOT metabolized | Compound NOT metabolized | Compound NOT metabolized | Compound NOT metabolized | Compound metabolized | Compound NOT metabolized | Compound NOT metabolized | Compound metabolized
CCOC(=O)C1=C[C@]2(CC)CCCN3CCc4c(n1c1ccccc41)[C@@H]32 [VINPOCETINE] | Compound NOT metabolized | Compound metabolized | Compound NOT metabolized | Compound NOT metabolized | Compound metabolized | Compound metabolized | Compound NOT metabolized | Compound NOT metabolized | Compound NOT metabolized | Compound metabolized | Compound NOT metabolized | Compound metabolized | Compound metabolized | Compound NOT metabolized | Compound metabolized | Compound NOT metabolized | Compound metabolized | Compound metabolized | Compound NOT metabolized | Compound metabolized
C[C@@H](c1ncncc1F)[C@](O)(Cn1cncn1)c1ccc(F)cc1F [VORICONAZOLE] | Compound NOT metabolized | Compound metabolized | Compound NOT metabolized | Compound NOT metabolized | Compound metabolized | Compound metabolized | Compound NOT metabolized | Compound metabolized | Compound NOT metabolized | Compound metabolized | Compound metabolized | Compound metabolized | Compound metabolized | Compound NOT metabolized | Compound metabolized | Compound metabolized | Compound metabolized | Compound metabolized | Compound metabolized | Compound metabolized
